According to the supplement of paper PMC9938120:

How the values were obtained:
Assay in all cases: drug sensitivity score (DSS3, normalised partial AUC of % inhibition dose-response) (DSS (score)); higher = more sensitive (stronger inhibition of viability); extreme values may be limits of the assay
Details in all cases: 72 h; library: FO5A; assay format: 2D, 384-well, CellTiter-Glo
[1] = test system: FMOC22 (patient-derived mucinous ovarian cancer cells)
Outline: (§1)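 The drug sensitivity score is calculated as a partial area under the percent-inhibition dose-response curve, divided by the log of the upper asymptote; higher scores mean more sensitive. For this score, early-passage (under 10) patient-derived ovarian cancer cells were exposed on 384-well flat clear-bottom plates to compounds at five concentrations across a 10,000-fold range for 72 h at 37 °C, 5% CO2. Viability was read with CellTiter-Glo and processed in Breeze.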

[2] = test system: FMOC14 (patient-derived high-grade serous ovarian cancer cells)
Outline: as §1

[3] = test system: FMOC03 (patient-derived mucinous ovarian cancer cells)
Outline: as §1

[4] = test system: FMOC25_2 (patient-derived low-grade serous ovarian cancer cells)
Outline: as §1

[5] = test system: FMOC02_3 (patient-derived low-grade serous ovarian cancer cells)
Outline: as §1

[6] = test system: FMOC11 (patient-derived high-grade serous ovarian cancer cells)
Outline: as §1

[7] = test system: FMOC02_2 (patient-derived low-grade serous ovarian cancer cells)
Outline: as §1

[8] = test system: FMOC04 (patient-derived high-grade serous ovarian cancer cells)
Outline: as §1

[9] = test system: FMOC02_1 (patient-derived low-grade serous ovarian cancer cells)
Outline: as §1

[10] = test system: FMOC17 (patient-derived low-grade serous ovarian cancer cells)
Outline: as §1

[11] = test system: FMOC27 (patient-derived low-grade serous ovarian cancer cells)
Outline: as §1

[12] = test system: FMOC06 (patient-derived mucinous ovarian cancer cells)
Outline: as §1

[13] = test system: FMOC28 (patient-derived low-grade serous ovarian cancer cells)
Outline: as §1

[14] = test system: FMOC09 (patient-derived high-grade serous ovarian cancer cells)
Outline: as §1

[15] = test system: FMOC24 (patient-derived high-grade serous ovarian cancer cells)
Outline: as §1

Row | SMILES | drug sensitivity score [1] | drug sensitivity score [2] | drug sensitivity score [3] | drug sensitivity score [4] | drug sensitivity score [5] | drug sensitivity score [6] | drug sensitivity score [7] | drug sensitivity score [8] | drug sensitivity score [9] | drug sensitivity score [10] | drug sensitivity score [11] | drug sensitivity score [12] | drug sensitivity score [13] | drug sensitivity score [14] | drug sensitivity score [15]
1 | O=C(Nc1ccc(OC(F)(F)Cl)cc1)c1cnc(N2CC[C@@H](O)C2)c(-c2cc[nH]n2)c1 [Asciminib] | 0 | 0 | 0 | 0.1 | 0 | 0 | 1 | 0 | 0 | 0 | 0 | 1 | 0 | 0 | 0.9
2 | CC1(C)C(C(=O)Nc2ccc(S(=O)(=O)c3ccc(NC(=O)C4C(C)(C)C4(C)C)cc3)cc2)C1(C)C [BRD7116] | 0 | 0 | 0.5 | 0 | 3.7 | 2.2 | 0.1 | 0 | 0 | 1.4 | 0 | 0.8 | 1 | 0 | 1.5
3 | COc1cc(N2CCC(N3CCN(C)CC3)CC2)ccc1Nc1ncc(Cl)c(Nc2ccccc2P(C)(C)=O)n1 [Brigatinib] | 0.5 | 1.7 | 0.9 | 6.4 | 3.7 | 1 | 4.3 | 1.75 | 4.4 | 2.9 | 1.7 | 4.7 | 4.8 | 3.8 | 2.8
4 | Cc1nc2cccc(N)c2c(=O)n1C1CCC(=O)NC1=O (stereo not given) [CC122] | 0 | 0.2 | 0 | 0 | 0.4 | 0 | 0 | 0 | 0 | 0.5 | 0.1 | 0 | 2.5 | 0 | 0
5 | COc1cc(C)[nH]c(=O)c1CNC(=O)c1c(C)n([C@H](C)C2CCOCC2)c2ccccc12 [CPI-360] | 0 | 0 | 0 | 0 | 0 | 0 | 0.1 | 0.05 | 0 | 0 | 0 | 0 | 3.4 | 0 | 0
6 | CNC(=O)c1ccc(-c2cnc3ncc(Cc4ccc5ncccc5c4)n3n2)cc1F [Capmatinib] | 0 | 0.1 | 0 | 0 | 0 | 0 | 0 | 0 | 0 | 0 | 0.5 | 0 | 0 | 0 | 0
7 | CC[C@@](C)(Nc1ccnc(-c2c[nH]c3ncccc23)n1)C(=O)NCC(F)(F)F [Decernotinib] | 0 | 0 | 0 | 0 | 0.4 | 0 | 1.7 | 0 | 3.3 | 0 | 0 | 2.6 | 0 | 0 | 0
8 | CC(C)(O)CNc1nc(Nc2ccnc(C(F)(F)F)c2)nc(-c2cccc(C(F)(F)F)n2)n1 [Enasidenib] | 0 | 0 | 1.4 | 1.7 | 0 | 0 | 2.5 | 0 | 1.5 | 2.3 | 0 | 0 | 4.4 | 0 | 0
9 | C[C@@H]1CN(C(=O)c2ccc(NC(=O)c3cc(O[C@H](C)c4c(Cl)ccc(F)c4Cl)c(N)nn3)cc2)C[C@H](C)N1 [Ensartinib] | 0.1 | 0 | 0 | 0.8 | 1.6 | 0.2 | 0.4 | 0.05 | 4.3 | 1.5 | 0 | 3 | 2.2 | 1.1 | 0.7
10 | CN1CCN(c2ccc(C(=O)Nc3n[nH]c4ccc(Cc5cc(F)cc(F)c5)cc34)c(NC3CCOCC3)c2)CC1 [Entrectinib] | 0 | 0 | 0 | 2.7 | 2.7 | 1.1 | 1.5 | 0.1 | 0.3 | 1.9 | 0 | 1.4 | 2.2 | 0.3 | 0
11 | COc1cc(OC)cc(N(CCNC(C)C)c2ccc3ncc(-c4cnn(C)c4)nc3c2)c1 [Erdafitinib] | 0 | 0 | 0 | 0.4 | 2.1 | 0.7 | 0 | 0 | 0 | 0.3 | 0 | 0 | 0 | 0 | 1.1
12 | C[C@H]1CN(C2COC2)CCN1c1ccc(Nc2cc(-c3ccnc(N4CCn5c(cc6c5CC(C)(C)C6)C4=O)c3CO)cn(C)c2=O)nc1 [GDC-0853] | 0 | 0 | 0 | 0 | 0 | 0 | 0 | 0 | 0 | 0 | 0 | 0 | 0.4 | 0 | 0
13 | O[C@H](C[C@H]1c2c(F)cccc2-c2cncn21)[C@H]1CC[C@H](O)CC1 [GDC-0919] | 0.4 | 0.8 | 0.1 | 0.1 | 2.1 | 1.7 | 3.6 | 0 | 0.2 | 0.8 | 2 | 1 | 2.2 | 0.3 | 0.55
